# According to patent publication US20110086759A1, “CHEMICAL COMPOUNDS” (SYNGENTA CROP PROTECTION, INC., priority 2007, published 2011):
# Tests used:
# Assay type in all cases: in vivo
# [1] = test system: Alopecurus myosuroides (ALOMY); test: Pre-emergence biological efficacy, glasshouse pot test; conditions: 312 h, evaluated after 13 days (100=total damage; 0=no damage), read-out: Percentage damage ALOMY; for pest or weed control at 1000 g/ha: pre-emergence, 1,000 g/ha
# Outline: (§1)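 Test compound, formulated in acetone/water (50:50) containing 0.5% Tween 20 and diluted into an aqueous spray, was applied at 1000 or 250 g/ha to pots sown one day earlier. Injury was rated after 13 days, 100 meaning total damage.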
# [2] = test system: Echinochloa crus-galli (ECHCG); test: as above; conditions: 312 h, evaluated after 13 days (100=total damage; 0=no damage), read-out: Percentage damage ECHCG; for pest or weed control at 1000 g/ha: pre-emergence, 1,000 g/ha
# Outline: as §1
# [3] = test system: Ipomea hederaceae (IPOHE); test: as above; conditions: Ipomoea hederacea, 312 h, evaluated after 13 days (100=total damage; 0=no damage), read-out: Percentage damage IPOHE; for pest or weed control at 1000 g/ha: pre-emergence, 1,000 g/ha
# Outline: as §1
# [4] = test system: Amaranthus retoflexus (AMARE); test: as above; conditions: Amaranthus retroflexus, 312 h, evaluated after 13 days (100=total damage; 0=no damage), read-out: Percentage damage AMARE; for pest or weed control at 1000 g/ha: pre-emergence, 1,000 g/ha
# Outline: as §1
# Solanum nigrum (SOLNI) [5] = test: as above; conditions: 312 h, evaluated after 13 days (100=total damage; 0=no damage), read-out: Percentage damage SOLNI; for pest or weed control at 1000 g/ha: pre-emergence, 1,000 g/ha
# Outline: as §1
# Setaria faberi (SETFA) [6] = test: as above; conditions: 312 h, evaluated after 13 days (100=total damage; 0=no damage), read-out: Percentage damage SETFA; for pest or weed control at 1000 g/ha: pre-emergence, 1,000 g/ha
# Outline: as §1
# [7] = test system: Alopecurus myosuroides (ALOMY); test: Post-emergence biological efficacy, glasshouse pot test; conditions: 312 h, evaluated after 13 days (100=total damage; 0=no damage), read-out: Percentage damage caused to weed species, ALOMY; for pest or weed control at 1000 g/ha: post-emergence, 1,000 g/ha
# Outline: (§2)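 Plants were sown in standard soil and grown 8 days in a glasshouse (24/16° C. day/night, 14 hours light, 65% humidity), then sprayed post-emergence at 1000 or 250 g/ha from acetone/water (50:50) with 0.5% Tween 20. Damage was scored visually after 13 days (0 = none, 100 = total).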
# [8] = test system: Echinochloa crus-galli (ECHCG); test: as above; conditions: 312 h, evaluated after 13 days (100=total damage; 0=no damage), read-out: Percentage damage caused to weed species, ECHCG; for pest or weed control at 1000 g/ha: post-emergence, 1,000 g/ha
# Outline: as §2
# [9] = test system: Ipomea hederaceae (IPOHE); test: as above; conditions: Ipomoea hederacea, 312 h, evaluated after 13 days (100=total damage; 0=no damage), read-out: Percentage damage caused to weed species, IPOHE; for pest or weed control at 1000 g/ha: post-emergence, 1,000 g/ha
# Outline: as §2
# [10] = test system: Amaranthus retoflexus (AMARE); test: as above; conditions: Amaranthus retroflexus, 312 h, evaluated after 13 days (100=total damage; 0=no damage), read-out: Percentage damage caused to weed species, AMARE; for pest or weed control at 1000 g/ha: post-emergence, 1,000 g/ha
# Outline: as §2
# Solanum nigrum (SOLNI) [11] = test: as above; conditions: 312 h, evaluated after 13 days (100=total damage; 0=no damage), read-out: Percentage damage caused to weed species, SOLNI; for pest or weed control at 1000 g/ha: post-emergence, 1,000 g/ha
# Outline: as §2
# Setaria faberi (SETFA) [12] = test: as above; conditions: 312 h, evaluated after 13 days (100=total damage; 0=no damage), read-out: Percentage damage caused to weed species, SETFA; for pest or weed control at 1000 g/ha: post-emergence, 1,000 g/ha
# Outline: as §2
Compound,pest or weed control at 1000 g/ha [1],pest or weed control at 1000 g/ha [2],pest or weed control at 1000 g/ha [3],pest or weed control at 1000 g/ha [4],pest or weed control at 1000 g/ha (Solanum nigrum (SOLNI) [5]),pest or weed control at 1000 g/ha (Setaria faberi (SETFA) [6]),pest or weed control at 1000 g/ha [7],pest or weed control at 1000 g/ha [8],pest or weed control at 1000 g/ha [9],pest or weed control at 1000 g/ha [10],pest or weed control at 1000 g/ha (Solanum nigrum (SOLNI) [11]),pest or weed control at 1000 g/ha (Setaria faberi (SETFA) [12]),also measured
"COC(=O)c1nc(C2CC2)nc(NC(C)c2ccc(F)cc2)c1Cl (stereo not drawn) [Compound 4-175, 5-Chloro-2-cyclopropyl-4-[1-(4-fluorophenyl)ethyl-amino]-6-methoxy-carbonylpyrimidine]",10%,10%,70%,50%,10%,0%,20%,60%,100%,100%,100%,90%,
"COC(=O)c1nc(C2CC2)nc(NC(C)c2ccc(Cl)cc2)c1Cl (stereo not drawn) [Compound 4-176, 5-Chloro-4-[1-(4-chlorophenyl)ethyl-amino]-2-cyclo-propyl-6-methoxy-carbonylpyrimidine]",0%,20%,60%,50%,0%,0%,20%,50%,100%,100%,100%,70%,
"COC(=O)c1nc(C2CC2)nc(NC(C)c2ccc(Br)cc2)c1Cl (stereo not drawn) [Compound 4-177, 4-[1-(4-Bromophenyl)ethyl-amino]-5-chloro-2-cyclopropyl-6-methoxycarbonyl-pyrimidine]",0%,0%,20%,20%,0%,0%,20%,50%,100%,90%,90%,40%,
"CCCCCc1ccc(C(C)Nc2nc(C3CC3)nc(C(=O)OC)c2Cl)cc1 (stereo not drawn) [Compound 4-178, 5-Chloro-2-cyclopropyl-6-methoxycarbonyl-4-[1-(4-n-pentyl-phenyl)ethylamino]-pyrimidine]",10%,10%,40%,60%,30%,10%,20%,20%,70%,70%,80%,30%,
"COC(=O)c1nc(C2CC2)nc(NC(C)c2cccc(C(F)(F)F)c2)c1Cl (stereo not drawn) [Compound 4-179, 5-Chloro-2-cyclopropyl-6-methoxycarbonyl-4-[1-(3-trifluoro-methylphenyl)ethyl-amino]pyrimidine]",,,,,,,,,,,,,"pest or weed control at 250 g/ha ([1]; pre-emergence, 250 g/ha): 0%; pest or weed control at 250 g/ha ([2]; pre-emergence, 250 g/ha): 0%; pest or weed control at 250 g/ha ([3]; pre-emergence, 250 g/ha): 0%; pest or weed control at 250 g/ha ([4]; pre-emergence, 250 g/ha): 50%; pest or weed control at 250 g/ha (Solanum nigrum (SOLNI) [5]; pre-emergence, 250 g/ha): 0%; pest or weed control at 250 g/ha (Setaria faberi (SETFA) [6]; pre-emergence, 250 g/ha): 0%; pest or weed control at 250 g/ha ([7]; post-emergence, 250 g/ha): 30%; pest or weed control at 250 g/ha ([8]; post-emergence, 250 g/ha): 40%; pest or weed control at 250 g/ha ([9]; post-emergence, 250 g/ha): 60%; pest or weed control at 250 g/ha ([10]; post-emergence, 250 g/ha): 70%; pest or weed control at 250 g/ha (Solanum nigrum (SOLNI) [11]; post-emergence, 250 g/ha): 80%; pest or weed control at 250 g/ha (Setaria faberi (SETFA) [12]; post-emergence, 250 g/ha): 50%"
"COC(=O)c1nc(C2CC2)nc(NC(C)c2ccc(C)cc2C)c1Cl (stereo not drawn) [Compound 4-183, 5-Chloro-2-cyclopropyl-4-[1-(2,4-dimethyl-phenyl)ethylamino]-6-methoxycarbonyl-pyrimidine]",0%,0%,20%,30%,0%,0%,10%,10%,60%,70%,40%,20%,
"COC(=O)c1nc(C2CC2)nc(NC(C)(C)c2ccccc2)c1Cl [Compound 4-189, 5-Chloro-2-cyclopropyl-6-methoxycarbonyl-4-(1-methyl-1-phenyl-ethylamino)-pyrimidine]",20%,0%,40%,60%,50%,0%,20%,0%,100%,100%,90%,50%,
"CCC(Nc1nc(C2CC2)nc(C(=O)OC)c1Cl)c1ccccc1 (stereo not drawn) [Compound 4-194, 5-Chloro-2-cyclopropyl-6-methoxycarbonyl-4-(1-phenylpropyl-amino)pyrimidine]",10%,20%,90%,100%,60%,10%,10%,60%,100%,100%,100%,80%,
"C=CC(Nc1nc(C2CC2)nc(C(=O)OC)c1Cl)c1ccccc1 (stereo not drawn) [Compound 4-197, 5-Chloro-2-cyclopropyl-6-methoxycarbonyl-4-(1-phenylprop-2-en-1-yl-amino)-pyrimidine]",20%,40%,100%,90%,90%,20%,40%,70%,100%,100%,90%,80%,
